Measurements from PubChem BioAssay AID2510 (The Scripps Research Institute Molecular Screening Center, 2010).

Target: Mucolipin-3 (Homo sapiens) (UniProt Q8TDD5)
Assay: TRPML3 agonist potency, dose response, cell-based, calcium fluorescence (AID 2510)
Settings: TRPML3-expressing cells, agonist mode

Sequence of Mucolipin-3 (Homo sapiens) (Q8TDD5 whole entry, looked up): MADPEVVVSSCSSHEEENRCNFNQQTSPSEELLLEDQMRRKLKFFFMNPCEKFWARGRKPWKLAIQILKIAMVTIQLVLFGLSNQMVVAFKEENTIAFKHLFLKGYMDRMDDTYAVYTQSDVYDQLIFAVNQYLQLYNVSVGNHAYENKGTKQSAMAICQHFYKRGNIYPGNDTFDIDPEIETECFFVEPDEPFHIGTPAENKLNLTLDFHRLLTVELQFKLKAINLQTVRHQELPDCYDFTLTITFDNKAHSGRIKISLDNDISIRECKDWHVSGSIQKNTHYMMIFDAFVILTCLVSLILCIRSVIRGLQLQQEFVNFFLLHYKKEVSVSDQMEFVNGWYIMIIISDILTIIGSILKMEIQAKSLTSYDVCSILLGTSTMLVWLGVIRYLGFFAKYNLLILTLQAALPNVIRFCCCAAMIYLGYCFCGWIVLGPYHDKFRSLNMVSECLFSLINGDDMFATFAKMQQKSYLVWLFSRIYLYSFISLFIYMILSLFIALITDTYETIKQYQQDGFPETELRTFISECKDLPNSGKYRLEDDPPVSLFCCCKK

- EC50: 1800 nM
SMILES: CCOc1ccc(S(=O)(=O)N2CCCCC2)c(C)c1C
